{"source": "patent US20210347780A1", "about": "“CDPK1 INHIBITORS, COMPOSITIONS, AND METHODS RELATED THERETO” (Vyera Pharmaceuticals, LLC, priority 2018, published 2021)", "data": [{"molecular_target": "T1, T. gondii CDPK1 (tgCDPK1) (Toxoplasma gondii, UniProt Q9BJF5)", "T1 sequence (Q9BJF5 1-507)": "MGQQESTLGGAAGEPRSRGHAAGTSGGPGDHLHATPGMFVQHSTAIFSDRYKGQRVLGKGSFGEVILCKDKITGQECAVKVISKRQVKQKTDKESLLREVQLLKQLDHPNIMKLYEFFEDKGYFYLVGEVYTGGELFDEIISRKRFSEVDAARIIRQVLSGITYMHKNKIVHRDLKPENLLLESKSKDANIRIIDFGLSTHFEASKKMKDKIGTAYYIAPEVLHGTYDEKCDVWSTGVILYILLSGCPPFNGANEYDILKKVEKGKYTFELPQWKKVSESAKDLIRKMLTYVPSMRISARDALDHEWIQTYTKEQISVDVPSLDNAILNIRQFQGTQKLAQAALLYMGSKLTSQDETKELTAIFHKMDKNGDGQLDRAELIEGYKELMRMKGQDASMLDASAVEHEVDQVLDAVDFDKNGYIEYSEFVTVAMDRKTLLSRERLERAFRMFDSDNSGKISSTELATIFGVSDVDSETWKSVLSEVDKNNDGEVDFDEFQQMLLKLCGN", "assay": "biochemical", "settings": "inhibition of T. gondii CDPK1; at least three independent replicates; read-out: tgCDPK1 IC50", "protocol": "(§1) Certain of the compounds prepared as described above were assayed to determine their IC50 for inhibition of T. gondii CDPK1 (tgCDPK1). At least three independent replicates of the assay were conducted for each compound tested.", "units": {"IC50": "µM"}, "values": [{"compound": "Nc1ncnc2c1c(Oc1cc(C(F)(F)F)ccn1)nn2[C@H]1CCCC[C@H]1O", "note": "(racemic) [191 cis (rac)]", "IC50": 0.044}, {"compound": "Nc1ncnc2c1c(Oc1cc(C(F)(F)F)ccn1)nn2[C@@H]1CCCC[C@H]1O", "note": "(racemic) [191 trans (rac)]", "IC50": 0.025}, {"compound": "Nc1ncnc2c1c(Oc1cc(O)ccn1)nn2[C@@H]1CCCC[C@H]1O", "note": "(single isomer, unassigned) [Compound 283]", "IC50": 0.147}, {"compound": "Nc1ncnc2c1c(Oc1cc(O)ccn1)nn2[C@@H]1CCCC[C@@H]1O", "note": "(single isomer, unassigned) [Compound 284]", "IC50": 0.0392}, {"compound": "COc1ccnc(Oc2nn([C@@H]3CCCC[C@H]3O)c3ncnc(N)c23)c1", "note": "(single isomer, unassigned) [Compound 285]", "IC50": 1.4}, {"compound": "COc1ccnc(Oc2nn([C@H]3CCCC[C@H]3O)c3ncnc(N)c23)c1", "note": "(single isomer, unassigned) [Compound 286]", "IC50": 0.144}, {"compound": "Nc1ncnc2c1c(Oc1cc(C(F)(F)F)ccn1)nn2[C@@H]1CCCC[C@H]1O", "note": "[191 (R,R)]", "IC50": 0.0084}, {"compound": "Nc1ncnc2c1c(Oc1cc(C(F)(F)F)ccn1)nn2[C@H]1CCCC[C@@H]1O", "note": "[191 (S,S)]", "IC50": 0.125}, {"compound": "Nc1ncnc2c1c(Oc1cc(CO)ccn1)nn2C1CC1", "note": "[Compound 86, (2-((4-amino-1-cyclopropyl-1H-pyrazole[3,4-d]pyrimidin-3-yl)oxy)pyridin-4-yl)methanol]", "IC50": 0.0296}, {"compound": "COc1ccnc(Oc2nn(C3CCC3)c3ncnc(N)c23)c1", "note": "[Compound 112, 1-cyclobuty1-3-((4-methoxypyridin-2-yl)oxy)-1H-pyrazolo[3,4-d]pyrimidin-4-amine]", "IC50": 0.0146}, {"compound": "Nc1ncnc2c1c(Oc1cc(C(F)(F)F)ccn1)nn2[C@H]1C[C@H](O)C1", "note": "[Compound 113, (trans)-3-(4-amino-3-((4-(trifluoromethyl)pyridin-2-yl)oxy)-1H-pyrazolo[3,4-d]pyrimidin-1-yl)cyclobutan-1-ol]", "IC50": 0.0265}, {"compound": "Nc1ncnc2c1c(Oc1cc(Cl)ccn1)nn2[C@H]1C[C@H](O)C1", "note": "[Compound 116]", "IC50": 0.0154}, {"compound": "Nc1ncnc2c1c(Oc1cccc(Cl)c1)nn2C1CCC1", "note": "[Compound 121, 3-(3-chlorophenoxy)-1-cyclobutyl-1H-pyrazolo[3,4-d]pyrimidin-4-amine]", "IC50": 0.00741}, {"compound": "Nc1ncnc2c1c(Cc1cccc(Cl)c1)nn2[C@H]1C[C@H](O)C1", "note": "[Compound 124, (trans)-3-(4-amino-3-(3-chlorobenzyl)-1H-pyrazolo[3,4-d]pyrimidin-1-yl)cyclobutan-1-ol]", "IC50": 0.00887}, {"compound": "Nc1ncnc2c1c(Cc1cccc(C(F)(F)F)c1)nn2[C@H]1C[C@H](O)C1", "note": "[Compound 125]", "IC50": 0.036}, {"compound": "Nc1ncnc2c1c(Cc1cccc(Br)c1)nn2[C@H]1C[C@H](O)C1", "note": "[Compound 127]", "IC50": 0.0184}, {"compound": "Nc1ncnc2c1c(Cc1cccc(F)c1)nn2[C@H]1C[C@H](O)C1", "note": "[Compound 128]", "IC50": 0.0283}, {"compound": "Nc1ncnc2c1c(Cc1cccc(Cl)c1)nn2[C@H]1C[C@@H](O)C1", "note": "[Compound 130, (cis)-3-(4-amino-3-(3-chlorobenzyl)-1H-pyrazolo[3,4-d]pyrimidin-1-yl)cyclobutan-1-ol]", "IC50": 0.0151}, {"compound": "Nc1ncnc2c1c(Cc1cccc(Br)c1)nn2[C@H]1C[C@@H](O)C1", "note": "[Compound 131]", "IC50": 0.0114}, {"compound": "Nc1ncnc2c1c(Cc1cccc(F)c1)nn2[C@H]1C[C@@H](O)C1", "note": "[Compound 132]", "IC50": 0.0284}, {"compound": "Nc1ncnc2c1c(Cc1cccc(Cl)c1)nn2[C@H]1C[C@@H](F)C1", "note": "[Compound 135, 3-(3-chlorobenzyl)-1-((cis)-3-fluorocyclobutyl)-1H-pyrazolo[3,4-d]pyrimidin-4-amine]", "IC50": 0.00705}, {"compound": "Nc1ncnc2c1c(Oc1cccc(C(F)(F)F)c1)nn2[C@H]1C[C@@H](O)C1", "note": "[Compound 151]", "IC50": 0.0313}, {"compound": "Nc1ncnc2c1c(Oc1cccc(Cl)c1)nn2[C@H]1C[C@@H](O)C1", "note": "[Compound 152]", "IC50": 0.0273}, {"compound": "Nc1ncnc2c1c(Oc1cccc(Cl)c1)nn2[C@H]1C[C@H](F)C1", "note": "[Compound 156]", "IC50": 0.01}, {"compound": "Nc1ncnc2c1c(Cc1c[nH]c3ccc(F)cc13)nn2[C@H]1C[C@H](F)C1", "note": "[Compound 157]", "IC50": 0.011}, {"compound": "Nc1ncnc2c1c(Oc1cc(C(F)(F)F)ccn1)nn2C1CC1", "note": "[Compound 159]", "IC50": 0.013}, {"compound": "Nc1ncnc2c1c(Cc1cccc(F)c1)nn2[C@H]1C[C@H](F)C1", "note": "[Compound 161]", "IC50": 0.0142}, {"compound": "COc1ccnc(Oc2nn([C@H]3C[C@H](F)C3)c3ncnc(N)c23)c1", "note": "[Compound 162]", "IC50": 0.0174}, {"compound": "Nc1ncnc2c1c(Oc1cc(Cl)ccn1)nn2[C@H]1C[C@@H](O)C1", "note": "[Compound 163]", "IC50": 0.018}, {"compound": "Nc1ncnc2c1c(Cc1cccc(F)c1)cn2[C@H]1C[C@H](O)C1", "note": "[Compound 164]", "IC50": 0.0283}, {"compound": "Nc1ncnc2c1c(Oc1cc(C3CC3)ccn1)nn2C1CC1", "note": "[Compound 165]", "IC50": 0.0289}, {"compound": "Nc1ncnc2c1c(Oc1cccc(C(F)(F)F)c1)nn2[C@H]1C[C@H](F)C1", "note": "[Compound 166]", "IC50": 0.0289}, {"compound": "COc1ccnc(Oc2nn([C@H]3C[C@@H](O)C3)c3ncnc(N)c23)c1", "note": "[Compound 168]", "IC50": 0.0371}, {"compound": "Nc1ncnc2c1c(Oc1cc(OC(F)(F)F)ccn1)nn2C1CC1", "note": "[Compound 169]", "IC50": 0.0377}, {"compound": "Nc1ncnc2c1c(Oc1cc(C(F)(F)F)ccn1)nn2[C@H]1C[C@@H](O)C1", "note": "[Compound 170]", "IC50": 0.0386}, {"compound": "N#Cc1cccc(Cc2nn([C@H]3C[C@H](F)C3)c3ncnc(N)c23)c1", "note": "[Compound 172]", "IC50": 0.0459}, {"compound": "N#Cc1cccc(Oc2nn([C@H]3C[C@H](F)C3)c3ncnc(N)c23)c1", "note": "[Compound 173]", "IC50": 0.0498}, {"compound": "NC(=O)c1ccnc(Oc2nn([C@H]3C[C@H](F)C3)c3ncnc(N)c23)c1", "note": "[Compound 174]", "IC50": 0.0697}, {"compound": "COc1ccnc(Oc2nn([C@H]3C[C@H](F)C3)c3ncnc(N)c23)c1", "note": "[Compound 175]", "IC50": 0.0174}, {"compound": "N#Cc1cccc(Oc2nn([C@H]3C[C@H](O)C3)c3ncnc(N)c23)c1", "note": "[Compound 178]", "IC50": 0.0796}, {"compound": "Nc1ncnc2c1c(Oc1cccc(C(F)(F)F)c1)nn2[C@H]1C[C@H](O)C1", "note": "[Compound 179]", "IC50": 0.0479}, {"compound": "Nc1ncnc2c1c(Cc1c[nH]c3ccc(F)cc13)nn2[C@H]1C[C@H](O)C1", "note": "[Compound 184]", "IC50": 0.0102}, {"compound": "Nc1ncnc2c1c(Oc1cc(C(F)(F)F)ccn1)nn2C1CCC(F)(F)CC1", "note": "[Compound 185]", "IC50": 0.0384}, {"compound": "Nc1ncnc2c1c(Oc1cc(C(F)(F)F)ccn1)nn2CC1CC1", "note": "[Compound 186]", "IC50": 0.0224}, {"compound": "Nc1ncnc2c1c(Oc1cc(O)ccn1)nn2C1CCC(F)(F)CC1", "note": "[Compound 187, 2-((4-amino-1-(4,4-difluorocyclohexyl)-1H-pyrazolo[3,4-d]pyrimidin-3-yl)oxy)pyridin-4-ol]", "IC50": 0.01}, {"compound": "Nc1ncnc2c1c(Oc1cc(Cl)ccn1)nn2C1CCNCC1", "note": "[Compound 188]", "IC50": 0.0297}, {"compound": "Nc1ncnc2c1c(Oc1cc(Cl)ccn1)nn2C1CCCNC1", "note": "(stereo not shown) [Compound 189]", "IC50": "~0.024"}, {"compound": "Nc1ncnc2c1c(Oc1cc(C(F)(F)F)ccn1)nn2C1CNCC(F)(F)C1", "note": "(stereo not shown) [Compound 190]", "IC50": "~0.054"}, {"compound": "Nc1ncnc2c1c(Oc1cc(C(F)(F)F)ccn1)nn2C1CCCC1", "note": "[Compound 192]", "IC50": 0.0192}, {"compound": "Nc1ncnc2c1c(Oc1cc(C(F)(F)F)ccn1)nn2C1CCOC1", "note": "(stereo not shown) [Compound 193]", "IC50": 0.0477}, {"compound": "Nc1ncnc2c1c(Oc1cc(C(F)(F)F)ccn1)nn2C1CCNCC1", "note": "[Compound 194]", "IC50": 0.0678}]}, {"molecular_target": "T1, T. gondii CDPK1 (tgCDPK1)", "assay": "biochemical", "settings": "tgCDPK1 IC50, inhibition of T. gondii CDPK1; at least three independent replicates", "protocol": "as §1", "units": {"IC50": "µM"}, "values": [{"compound": "Nc1ncnc2c1c(Oc1cccc(Cl)c1)nn2[C@H]1C[C@H](F)C1", "note": "[Compound 171]", "IC50": 0.0411}]}]}
